Reference: patent publication US20040043919A1, “Method for the treatment of neurological and neuropsychological disorders” (priority 2003, published 2004)

Tests used:
rats = conditions: administered into the dorsal periaqueductal gray matter; cited from earlier work
[1] = biological target: T1, attractin from human plasma (Homo sapiens, UniProt O75882); test: Proteolytic activity of purified attractin (chromogenic substrate kinetics); format: biochemical
T1 construct: was prepared from 100 ml plasma from healthy humans; tissue Baxter GmbH Germany, Plasmazentrum Halle (supplier of the plasma); host or cells: human plasma
Protocol: (§1) Attractin from human plasma (Baxter GmbH Germany, Plasmazentrum Halle) was prepared from 100 ml plasma from healthy humans. Matrix-assisted laser desorption/ionisation mass spectrometry was carried out using the Hewlett-Packard G2025 LD-TOF System.
(§2) In further studies the proteolytic activity of attractin has been investigated. […] In addition, the cleavage of bioactive peptides such as NP Y, RANTES, GIP, and Glucagon by purified attractin has been analyzed. […] Previously, differences within hydrolysis of the chemokine RANTES by DP IV and attractin have been described^4.

[2] = biological target: T1, attractin from human plasma; test: MALDI-TOF analysis of peptide cleavage by purified attractin in presence or absence of isoleucyl-thiazolidine; format: biochemical; conditions: peptide 25 μM, 37° C.; for Cleavage of bioactive peptide by purified attractin: tricine/HCl pH 7.6, MALDI-TOF (FIG. 1)
Protocol: as §1
To obtain spectra of peptides (25 μM) by the treatment of purified DP IV and attractin in the presence or absence of isoleucyl-thiazolidine (10 μM), substrates were incubated at 37° C. with 40 mM tricine/HCl buffer pH 7.6 and enzyme solution in a 2:2:1 ratio. Samples of the reaction mixtures were removed at various time intervals and mixed with equal volumes of the matrix solution. By mixing assay sample and matrix, the low pH of the matrix solution stopped the enzymatic reaction. A small volume of this mixture was transferred to a probe tip and immediately evaporated in a Hewlett-Packard G2024A Sample Prep Accessory.
as §2

[3] = tested on: olfactory bulbectomized rats; conditions: 7-day i.c.v. administration; cited from earlier work
[4] = Anxiolytic effect on administration of the attractin inhibitor; format: in vivo; conditions: no method or data given

T1 sequence (O75882 84-1272 isoform O75882-2 limits assumed): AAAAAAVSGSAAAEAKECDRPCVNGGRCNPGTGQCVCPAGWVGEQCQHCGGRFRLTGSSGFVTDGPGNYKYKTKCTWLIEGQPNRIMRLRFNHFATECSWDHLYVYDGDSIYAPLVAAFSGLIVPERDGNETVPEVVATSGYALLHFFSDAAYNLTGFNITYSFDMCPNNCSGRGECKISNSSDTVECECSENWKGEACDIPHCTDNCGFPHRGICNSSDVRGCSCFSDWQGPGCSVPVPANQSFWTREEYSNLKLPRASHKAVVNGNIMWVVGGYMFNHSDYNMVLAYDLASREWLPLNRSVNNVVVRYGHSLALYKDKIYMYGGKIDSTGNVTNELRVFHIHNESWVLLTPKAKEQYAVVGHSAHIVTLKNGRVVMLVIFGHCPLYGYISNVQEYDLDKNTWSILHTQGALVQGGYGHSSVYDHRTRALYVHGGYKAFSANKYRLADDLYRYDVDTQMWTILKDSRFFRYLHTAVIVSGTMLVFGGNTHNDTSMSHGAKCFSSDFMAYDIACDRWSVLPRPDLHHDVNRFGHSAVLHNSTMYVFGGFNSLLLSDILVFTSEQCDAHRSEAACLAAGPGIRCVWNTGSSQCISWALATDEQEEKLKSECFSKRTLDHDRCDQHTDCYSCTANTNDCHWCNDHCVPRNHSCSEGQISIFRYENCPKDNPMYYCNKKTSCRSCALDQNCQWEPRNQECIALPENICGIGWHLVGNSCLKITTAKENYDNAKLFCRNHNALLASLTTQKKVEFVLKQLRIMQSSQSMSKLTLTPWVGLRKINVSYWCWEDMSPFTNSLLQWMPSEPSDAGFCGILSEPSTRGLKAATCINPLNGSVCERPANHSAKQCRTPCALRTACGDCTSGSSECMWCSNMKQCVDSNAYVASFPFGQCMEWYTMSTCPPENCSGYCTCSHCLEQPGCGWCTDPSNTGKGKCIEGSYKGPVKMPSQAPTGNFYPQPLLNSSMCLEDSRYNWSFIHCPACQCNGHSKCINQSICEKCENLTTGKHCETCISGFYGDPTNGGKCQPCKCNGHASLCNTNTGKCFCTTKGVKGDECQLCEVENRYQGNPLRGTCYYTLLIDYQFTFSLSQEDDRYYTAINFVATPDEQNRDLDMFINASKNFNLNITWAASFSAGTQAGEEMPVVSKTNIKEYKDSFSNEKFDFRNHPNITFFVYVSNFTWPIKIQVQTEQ

NC(N)=NCCC[C@@H](NC(=O)C(c1ccccc1)c1ccccc1)C(=O)NCc1ccc(O)cc1 [BIBP3226]
Time spent in active social interaction (rats): decreased the time spent in active social interaction

NCC(=O)N1CCCC1C(=O)Nc1ccc([N+](=O)[O-])cc1 (stereo not drawn) [Gly-Pro-pNA]
Km [1]: 140 µM

Neuropeptide Y [NP Y]
Cleavage of bioactive peptide by purified attractin [2]: capable of releasing the N-terminal dipeptide Tyr-Pro | Behavioral and neurotransmitter deficits [3]: attenuated behavioral and neurotransmitters deficits

RANTES1-15: synthetic N-terminal fragment 1-15 of the chemokine RANTES (SPYSSDTTPCCFAYI; UniProt P13501 24-38, looked up, fragment)
Cleavage of bioactive peptide by purified attractin [2]: capable of releasing sequentially the first (Ser-Pro) as well as the second dipeptide (Tyr-Ser)

isoleucyl-thiazolidine hemifumarate
Cleavage of NP Y by attractin in presence of inhibitor ([2]; isoleucyl-thiazolidine 10 μM, pH 7.6, MALDI-TOF (FIG. 1B)): the cleavage was suppressed | Anxiolytic effect [4]: exhibits an anxiolytic effect
